The target in one assay is BRD4 (His-Brd4(44-477)) (Homo sapiens (Human), UniProt O60885). The assay is described as follows: TR-FRET in-vitro binding assay for BRD4. To be noted: acetyl-histone H4 peptide. Background: In TR-FRET formats the signal depends on donor and acceptor labels being close together.
The next assay has as its target BRD2 (His-Brd2(60-472)) (Homo sapiens (Human), UniProt P25440). The assay is described as follows: TR-FRET in-vitro binding assay for BRD2. To be noted: acetyl-histone H4 peptide.
Assay [1] addresses CREBBP bromodomain (His-CREBBP(1081-1197)) (Homo sapiens (Human), UniProt Q92793). The assay is described as follows: AlphaScreen in-vitro binding assay for CREBBP. The note with it: AlphaScreen, acetyl-histone H4 peptide; read-out: CREBBP IC50. On the technique in general: In Alpha technology, singlet oxygen from a donor bead excites a nearby acceptor bead.

Each structure is given as a SMILES string.

A word on the IC50: it is the concentration at which inhibition is half-maximal.

Sequence of CREBBP bromodomain (His-CREBBP(1081-1197)) (Q92793 1081-1197): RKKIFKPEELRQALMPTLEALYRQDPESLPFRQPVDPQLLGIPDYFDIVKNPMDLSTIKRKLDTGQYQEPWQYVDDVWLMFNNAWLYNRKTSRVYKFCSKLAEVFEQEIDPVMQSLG
Sequence of BRD2 (His-Brd2(60-472)) (P25440 60-472): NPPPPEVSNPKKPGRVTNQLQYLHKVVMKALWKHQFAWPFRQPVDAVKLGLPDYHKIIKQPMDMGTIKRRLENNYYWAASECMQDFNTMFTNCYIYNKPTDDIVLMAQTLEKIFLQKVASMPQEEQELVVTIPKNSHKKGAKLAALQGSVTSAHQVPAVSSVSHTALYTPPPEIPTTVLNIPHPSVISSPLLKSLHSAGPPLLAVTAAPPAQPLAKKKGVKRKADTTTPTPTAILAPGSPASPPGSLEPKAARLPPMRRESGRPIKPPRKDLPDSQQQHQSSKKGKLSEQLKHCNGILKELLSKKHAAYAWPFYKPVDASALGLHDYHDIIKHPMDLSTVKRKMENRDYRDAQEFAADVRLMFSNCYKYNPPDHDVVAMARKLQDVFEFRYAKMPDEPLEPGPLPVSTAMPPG

Consider `Cc1cc(N2C(=O)c3c(C4CC4)nn(C)c3C2c2ccc(Cl)cc2)cn2c(C(F)F)nnc12` (racemic) [Example 3, 6-(4-chlorophenyl)-3-cyclopropyl-5-(3-(difluoromethyl)-8-methyl-[1,2,4]triazolo[4,3-a]pyridin-6-yl)-1-methyl-5,6-dihydropyrrolo[3,4-c]pyrazol-4(1H)-one], for which the IC50 on BRD4 (His-Brd4(44-477)) was below 11 nM; at BRD2 (His-Brd2(60-472)) it was 13 nM; in assay [1], above 37000 nM.
On to `COCCn1nc(C2CC2)c2c1C(c1ccc(Cl)cc1)N(c1cc(C)c3nnc(C)n3c1)C2=O` (racemic) [Example 4, 6-(4-chlorophenyl)-3-cyclopropyl-5-(3,8-dimethyl-[1,2,4]triazolo[4,3-a]pyridin-6-yl)-1-(2-methoxyethyl)-5,6-dihydropyrrolo[3,4-c]pyrazol-4(1H)-one], for which the concentration for half-maximal inhibition (IC50) is below 11 nM on BRD4 (His-Brd4(44-477)), 17 nM on BRD2 (His-Brd2(60-472)) and 7300 nM in assay [1].
Regarding `COc1cc(N2C(=O)c3c(C4CC4)nn(C)c3C2c2ccc(Cl)cc2)cn2c(C)nnc12` (racemic) [Example 5, 6-(4-chlorophenyl)-3-cyclopropyl-5-(8-methoxy-3-methyl-[1,2,4]triazolo[4,3-a]pyridin-6-yl)-1-methyl-5,6-dihydropyrrolo[3,4-c]pyrazol-4(1H)-one], the IC50 was 28 nM at BRD4 (His-Brd4(44-477)), 54 nM at BRD2 (His-Brd2(60-472)) and above 37000 nM in assay [1].
On to `Cc1cc(N2C(=O)c3c(C4CC4)nn(C)c3C2c2ccc(Cl)cc2)cn2c(CF)nnc12` (racemic) [Example 16, 6-(4-chlorophenyl)-3-cyclopropyl-5-(3-(fluoromethyl)-8-methyl-[1,2,4]triazolo[4,3-a]-pyridin-6-yl)-1-methyl-5,6-dihydropyrrolo[3,4-c]pyrazol-4(1H)-one], for which the IC50 at BRD4 (His-Brd4(44-477)) was 15 nM; on BRD2 (His-Brd2(60-472)), 16 nM; in assay [1], above 37000 nM.
The matching figures for `Cc1cc(N2C(=O)c3c(C4CC4)nn(C)c3C2c2ccc(Cl)cc2)cn2c(C)nnc12` (centres unmarked) [Example 1, 6-(4-chlorophenyl)-3-cyclopropyl-5-(3,8-dimethyl-[1,2,4]triazolo[4,3-a]pyridin-6-yl)-1-methyl-5,6-dihydropyrrolo[3,4-c]pyrazol-4(1H)-one]: 24 nM, 29 nM and 11400 nM.
For the molecule `Cc1cc(N2C(=O)c3c(C4CC4)nn(C)c3[C@H]2c2ccc(Cl)cc2)cn2c(C)nnc12` [Example 2, (R)-6-(4-chlorophenyl)-3-cyclopropyl-5-(3,8-dimethyl-[1,2,4]triazolo[4,3-a]pyridin-6-yl)-1-methyl-5,6-dihydropyrrolo[3,4-c]pyrazol-4(1H)-one], the IC50 on BRD4 (His-Brd4(44-477)) is below 11 nM; on BRD2 (His-Brd2(60-472)), 11 nM; in assay [1], 6000 nM.
Take `COc1cc(N2C(=O)c3c(C4CC4)nn(C)c3C2c2ccc(Cl)cc2)cc2c1nnn2C` (centres unmarked) [Example 6]: the IC50 on BRD4 (His-Brd4(44-477)) came to 22 nM; on BRD2 (His-Brd2(60-472)), 38 nM; in assay [1] it was 21600 nM.
Take `Cc1cc(N2C(=O)c3c(C4CC4)nn(C)c3[C@H]2c2ccc(Cl)cc2)cn2c(C(F)F)nnc12` [Example 7, (R)-6-(4-chlorophenyl)-3-cyclopropyl-5-(3-(difluoromethyl)-8-methyl-[1,2,4]triazolo-[4,3-a]pyridin-6-yl)-1-methyl-5,6-dihydropyrrolo[3,4-c]pyrazol-4(1H)-one]: the figures for the IC50 (on BRD4 (His-Brd4(44-477)); at BRD2 (His-Brd2(60-472)); in assay [1]) were below 11 nM, 13 nM and above 37000 nM, respectively.
`COCCn1nc(C2CC2)c2c1C(c1ccc(Cl)cc1)N(c1cc(C)c3nnc(CF)n3c1)C2=O` (centres unmarked) [Example 18, 6-(4-chlorophenyl)-3-cyclopropyl-5-(3-(fluoromethyl)-8-methyl-[1,2,4]triazolo[4,3-a]-pyridin-6-yl)-1-(2-methoxyethyl)-5,6-dihydropyrrolo[3,4-c]pyrazol-4(1H)-one]: the IC50 at BRD4 (His-Brd4(44-477)) was 25 nM; on BRD2 (His-Brd2(60-472)), 33 nM; in assay [1] it was above 37000 nM.
Take `Cc1nnc2c(NC(=O)OC(C)(C)C)cc(N3C(=O)c4c(C5CC5)nn(C)c4C3c3ccc(Cl)cc3)cn12` (centres unmarked) [Example 27, tert-butyl (6-(6-(4-chlorophenyl)-3-cyclopropyl-1-methyl-4-oxopyrrolo[3,4-c]pyrazol-5(1H,4H,6H)-yl)-3-methyl-[1,2,4]triazolo[4,3-a]pyridin-8-yl)carbamate]: the IC50 at BRD4 (His-Brd4(44-477)) was 36 nM; on BRD2 (His-Brd2(60-472)) it was 47 nM; in assay [1] it was 8100 nM.
On to `CCOC(=O)Nc1cc(N2C(=O)c3c(C4CC4)nn(C)c3C2c2ccc(Cl)cc2)cn2c(C)nnc12` (centres unmarked) [Example 29, ethyl (6-(6-(4-chlorophenyl)-3-cyclopropyl-1-methyl-4-oxopyrrolo[3,4-c]pyrazol-5-(1H,4H,6H)-yl)-3-methyl-[1,2,4]triazolo[4,3-a]pyridin-8-yl)carbamate], for which the IC50 on BRD4 (His-Brd4(44-477)) and at BRD2 (His-Brd2(60-472)) was 23 nM in each case.

These data come from patent US9624247B2, “Pyrazolo-pyrrolidin-4-one derivatives as bet inhibitors and their use in the treatment of disease” (NOVARTIS AG, priority 2013, dated 2017).
